Results: patent US12178800B2, “Sulforaphane-melatonin-like compound” (priority 2018, dated 2024)

Columns and labels:
cyclooxygenase-2 (COX-2) = assay: COX-2 immunohistochemistry of irradiated skin; format: in vivo, Gottingen mini-pigs; details: 7, 21 and 35 days after irradiation
Experimental: After incubation in normal horse serum for 60 min to prevent nonspecific binding, the skin sections were incubated with mouse anti-nuclear factor (NF)-κB (sc-109, 1:200; Santa Cruz Biotechnology, Santa Cruz, CA, USA) and mouse anti-COX-2 (18-7379, 1:200; Zymed, USA) in phosphate buffered saline-Tween (PBS-T overnight at 4° C. The sections were subsequently incubated with biotinylated horse anti-mouse IgG (VECTASTAIN Elite ABC Kit; Vector Laboratories, USA). The immunoreactivity was assessed using the avidin-biotin peroxidase complex (VECTASTAIN Elite ABC Kit; Vector Laboratories). The peroxidase reaction was developed using a diaminobenzidine substrate kit (DAB Substrate Kit SK-4100; Vector Laboratories). As a control, the primary antibodies were omitted from the immunohistochemical analysis of a few test sections in each experiment. The sections were then counterstained with hematoxylin before being mounted.

peripheral blood = assay: Peripheral blood counts after focal irradiation; format: in vivo, Gottingen mini-pigs
Text: Blood samples were collected via the ear vein into sample tubes containing ethylenediaminetetraacetic acid at different time points (before irradiation, 3, 7, 21, and 35 days after irradiation). Peripheral eosinophils were automatically counted using a Hemavet System (Drew Scientific, UK).

ICR mice = assay: X-ray-induced oral mucositis in mice: survival and behaviour; format: in vivo
Experimental: In a second example for illustrating embodiments of the present invention, six-week-old ICR mice (30-40 g) obtained from Institute of Animal Breeding and Genetics, University of Gottingen, Germany were used. The animals were housed in a room maintained at 22±2° C. under a 12-h light-dark cycle with lights on at 7:00 a.m. Mice were fed a standard rodent diet and had free access to water. In addition, no antibiotic supplements were used. All animal experiments were performed in compliance to The German Animal Welfare Act. The mice (n=20 per group) were anesthetized (pentobarbital sodium, 50 mg/kg body weight, i.p.) and then irradiated. Mice had to be irradiated only at the tip of the tongue, so the rest of the body was shielded with a lead device (thickness, 0.5 mm). The tongue was fixed to the outer surface of the lead device using adhesive tape and irradiated with a single radiation dose of 20 Gy. Radiation was generated using a 150 kV potential (20 mA) X-ray source at a focal distance of 350 mm and beam-hardened by a 1.0-mm aluminum filtration system (MBR-1520R-3; Hitachi, Tokyo, Japan). The dose rate was 5.1 Gy/min. The 6OHM-6-HITC compound was dissolved in a small volume of 1 M NaOH solution. The pH was adjusted to 7 with 1 M HCL. […] The body weight was recorded and the tongues were observed daily after irradiation. […]

mouse tongues = assay: TUNEL staining of tongue sections (apoptosis); format: in vivo, ICR mice; details: 12 days post-irradiation, control 23.7%
Text: (§1) The scoring of oral mucositis was based on a modification of the method of Sonis et al. To assess the severity of oral mucositis, mice were anesthetized with isoflurane every day. The oral mucositis score was: 0=normal; 1=partial hyperemia, erythema and swelling; 2=overall hyperemia, erythema and swelling; 3=epidermolysis, hyperemia and erythema; 4=extensive epidermolysis and bleeding; 5=bleeding and abscesses. Myeloperoxidase (MPO) activity is a marker for neutrophils in inflamed tissue. MPO activity was measured in mouse tongues using a modification of the method of Chen et al. After mice had been killed by cervical dislocation 12 days after irradiation, tongue samples (n=10 per group) were removed and stored at −70° C. until required for assay. […] MPO activity was measured using a Microplate Reader (NJ-2300; Biotec, Tokyo, Japan) at 450 nm. MPO activity was calculated by measuring the slope of absorbance calibrated using MPO standards (Wako Biochemicals) and expressed as MPO/g tongue. […] TBARS levels were measured using the Microplate Reader (Biotec) at 540 nm. TBARS levels were calculated by measuring the slope of absorbance calibrated using TBARS standards and expressed as TBARS/g tongue. […] The number of TUNEL-positive cells on the tongue tips were counted and expressed as a percentage. […] Data were analyzed using one-way analysis of variance (ANOVA) followed by the Steel-Dwass test. […]

Myeloperoxidase (MPO) = Myeloperoxidase (MPO) activity in mouse tongues; format: in vivo, ICR mice; details: 12 days after irradiation
Text: as §1

[1] = tested on: 2-Thiobarbituric Acid Reactive Substances (TBARS); assay: TBARS levels in mouse tongues; format: in vivo, ICR mice; details: 12 days after irradiation
Text: as §1

[2] = 21 and 35 days after irradiation, decrease not significant

## COc1cc2c(CCCCN=C=S)c[nH]c2cc1O [6OHM-6-HITC]
cyclooxygenase-2 (COX-2)
  COX-2 expression in the irradiated skin vs. vehicle-treated skin: lower
Peripheral blood; [2]
  eosinophils in the blood: decreased
  neutrophils in the blood: decreased
Peripheral blood; initially (7 days after exposure)
  radioprotective effect on peripheral blood (white blood cell count): did not show a radioprotective effect
ICR mice; 300 mg/kg i.p.
  behavioral disorders: not observed
ICR mice; 30 and 300 mg/kg i.p. 30 min before 20 Gy irradiation of the tongue
  survival after X-ray irradiation: significant difference in survival was not found
Mouse tongues; 30 mg/kg i.p.
  percentage of TUNEL-positive cells: 9.9%
Mouse tongues; 300 mg/kg i.p.
  percentage of TUNEL-positive cells: 8.6%
Myeloperoxidase (MPO); 30 mg/kg i.p.
  MPO activity vs. control group: significantly lower
Myeloperoxidase (MPO); 300 mg/kg i.p.
  MPO activity vs. control group: significantly lower
[1]; 30 mg/kg i.p.
  TBARS levels vs. control group: lower
[1]; 300 mg/kg i.p.
  TBARS levels vs. control group: significant decrease
